From article PMC4667271, “Discovery of a Novel Inhibitor of the Protein Tyrosine Phosphatase Shp2” (Scientific Reports, 2015) come the findings set out here.

For experiment [1], the target named is SHP1 (Homo sapiens, UniProt P29350). Put plainly: in vitro PTP assay (pNPP), SHP1. In kind it is biochemical. On the procedure: (§1) Plasmids for expression of His-tag fusion proteins of human PTP were constructed in PET-28a by PCR subcloning techniques. The constructions contain only the PTP domain except Full-length Shp2. Full-length Shp2 containing Tyr279-to-Ala mutant was generated by PCR-based mutagenesis. All constructs were verified by DNA sequencing. PTP-His fusion proteins were expressed in Escherichia coli BL21 and lysed in the buffer (50 mM NaH2PO4, 300 mM NaCl, 250 mM imidazole, 1 mM dithiothreitol plus 5% glycerol), purified with Ni-NTA Magnetic Agarose Beads (Qiagen). The His-tag recombinant purification protocol was carried out according to the purification under native conditions of the QIAexpress System.
(§2) The assay was set in wells of 96-well plate with a final volume of 100 μl of reaction mixture containing 10 mM of NaAc-HAc, 1 mM of ethylene diamine tetraacetic acid, 1 mM of DL-dithiothreitol and 2% of dimethyl sulfoxide, pH 5.5. Activity of the enzyme was assayed by incubating recombinant PTP protein or mutant PTP with various concentrations of Fumos in the mixture at 37 °C for 30 min. Absorbance at 405 nm was detected immediately after addition of varied concentrations of substrate, p-nitrophenyl phosphate (pNPP) to each corresponding well.

Experiment [2] concerns phosphorylation of AKT and GSK3β. Put plainly: EGF-induced AKT activation, Western blot. The note with it: 10-40 μM for 24 h, EGF 20 ng/ml 5 min. It is filed as cell-based. An excerpt:
Figure 4 Fumos doesn’t inhibit EGF-induced AKT activation. Fumos doesn’t inhibit EGF-induced AKT activation. […] DMSO treatment as control. Western blotting analysis for p-AKT, AKT, p-GSK3β and GSK3β.
(§3) After centrifugation, the supernatant was collected.

Experiment [3] deals with Meg2 (Homo sapiens, UniProt P43378). Put plainly: in vitro PTP assay (pNPP), Meg2. It is filed as biochemical. On the procedure: as §1, §2
The subject of experiment [4] is ERK1/2 phosphorylation in MDA-MB-231 cells. In words: EGF-induced ERK1/2 activation, Western blot, MDA-MB-231. It is filed as cell-based, human. As to conditions: MDA-MB-231 (K-Ras G13D); 10-40 μM for 24 h, EGF 20 ng/ml 5 min.
Source text: as §3

The subject of experiment [5] is MDA-MB-231 cells. Put plainly: Transwell invasion assay, MDA-MB-231. It is filed as cell-based, human. The note with it: 4 and 14 μM, 24 h, EGF in lower chamber. The protocol:
The invasion assay was performed in Transwell chambers according to Corning methods. Briefly, the upper chamber of a Transwell insert ([…] pore size) was coated with 40 μl 1:6 mixture of Matrigel (BD Biosciences, Bedford): Opti-MEM (Invitrogen) for MDA-MB-231 and 40 μl 1:12 mixture of Matrigel: Opti-MEM (Invitrogen) for HeLa cells and dried for 2 h at 37 °C. The lower chamber was filled with serum-free media containing 10 ng/ml EGF. Cells were seeded into upper chamber at a density 5 × 10^4 cells/ml per well in serum-free media. Cells were treated with series concentrations of Fumos for 24 h. The top aspect of the membrane was gently swabbed the inside of each insert using cotton swabs, and cells that invaded on the lower surface of the membrane were fixed using methanol and stained with crystal violet (Beyotime Institute of Biotechnology). Random fields were counted and photographed by microscope (Olympus).

Experiment [6] relates to PMA-induced ERK1/2 phosphorylation. In words: PMA-induced ERK1/2 activation, Western blot. The note with it: pretreated 24 h, 100 nM PMA 5 min; even at highest concentration tested.
Method: Cells were pretreated with increasing concentrations of Fumos for 24 h, and then stimulated with 100 nM PMA for 5 min. DMSO treatment as control. ERK1/2 activation was analyzed by Western-Blot with antibodies to phosphorylated ERK1/2 (pERK) or ERK1/2. GAPDH is used as a loading control for Western Blot. The control treatment is not induced by PMA.
Cells were seeded in a culture bottle at 37 °C, under 5% CO2 and 95% air. […] Then cells were collected and dissolved in the lysis buffer (50 mM Hepes-NaOH, 100 mM NaCl, 0.5%NP-40, 2.5 mM EDTA, 10% glycerol, 1 mM DTT, 1 mM PMSF, 0.7 μl/ml pepstatin, 0.5 μg/ml leupetin, 2 μg/ml aprotinin). Cell lysates were centrifuged at 4 °C with the speed of 10,000 g for 15 min. After centrifugation, the supernatant was collected. 30 μg proteins were loaded on SDS-PAGE. After electrophoresis, proteins were transferred onto PVDF meber, and immunobloted with specific antibodies, and visualized using ECL reagent. Each membrane was stripped and reprobed with anti-GAPDH antibody to ensure equal protein loading. The bands were densitometrically scanned and analyzed using a BIO-RAD Gel Analysis System.
Experiment [7] concerns the target HePTP (Homo sapiens, UniProt P35236). Put plainly: in vitro PTP assay (pNPP), HePTP. It is filed as biochemical. The protocol: as §1, §2
For experiment [8], the target named is TCPTP (Homo sapiens, UniProt P17706). Put plainly: in vitro PTP assay (pNPP), TCPTP. It is filed as biochemical. The protocol: as §1, §2
Experiment [9] relates to Gab1-Shp2 association in MDA-MB-231 cells. In words: Gab1-Shp2 co-immunoprecipitation, MDA-MB-231. It is filed as cell-based, human. The note with it: Fumos alone. The protocol: Cells were washed with cold PBS twice and lysed in cell lysis buffer for 10 min on ice. Then the lytic cells were centrifugated with 13,000 g for 10 min at 4 °C. The supernatant was transferred to a fresh conical centrifuge tube on ice and added 1 μg of the appropriate control IgG, together with 20 μl of resuspended volume of Protein A/G PLUS-Agarose (Santa Cruz Biotechnology, CA), then incubated at 4 °C for 30 min. The pellet beads were centrifugated at 1,000 g for 5 min at 4 °C. The supernatant with approximately 100–500 μg total cellular protein was incubated with 2 μg primary antibody against Shp2 or Gab1 for 7 h at 4 °C. Then lysates containing protein-antibody complexes were incubated with 20 μl of Protein A/G PLUS-Agarose at 4 °C on a rotating device overnight. Immunoprecipitates were collected by centrifugation at 2,500 rpm and washed for 4 times with 1 ml lysis buffer, then suspended in the loading buffer, boiled, and analyzed by SDS-PAGE.
Figure S1. Fumos inhibits Gab1-Shp2 association in MDA-MB-231 cells.
MDA-MB-231 cells were serum-starved for 18 h, preincubated with or without Fumos (20 μM 24 h), and then treated with EGF (20 ng/ml, 5 min). Shp2 was immunoprecipitated from cell lysate supernatants. Immunoprecipitates were analyzed by immunoblotting with antibodies to Gab1, pY and Shp2.
(1 picture or pasted object on this page, not shown here)

HePTP, sequence (P35236 97-350 limits assumed): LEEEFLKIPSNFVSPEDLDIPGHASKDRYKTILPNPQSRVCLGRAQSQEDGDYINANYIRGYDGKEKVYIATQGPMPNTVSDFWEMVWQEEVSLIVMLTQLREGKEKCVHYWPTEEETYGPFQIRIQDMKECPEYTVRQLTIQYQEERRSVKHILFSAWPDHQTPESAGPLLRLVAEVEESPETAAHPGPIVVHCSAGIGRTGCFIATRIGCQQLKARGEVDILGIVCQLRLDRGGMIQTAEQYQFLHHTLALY
Meg2, sequence (P43378 303-574 limits assumed): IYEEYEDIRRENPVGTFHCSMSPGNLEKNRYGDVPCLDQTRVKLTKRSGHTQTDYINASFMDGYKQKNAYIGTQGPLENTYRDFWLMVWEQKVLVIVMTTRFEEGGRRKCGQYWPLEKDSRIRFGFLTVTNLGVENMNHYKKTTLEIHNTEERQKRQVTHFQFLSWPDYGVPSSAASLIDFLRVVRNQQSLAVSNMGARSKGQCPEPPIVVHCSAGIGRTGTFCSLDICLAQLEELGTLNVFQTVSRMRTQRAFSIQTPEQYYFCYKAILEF
SHP1, sequence (P29350 244-515 limits assumed): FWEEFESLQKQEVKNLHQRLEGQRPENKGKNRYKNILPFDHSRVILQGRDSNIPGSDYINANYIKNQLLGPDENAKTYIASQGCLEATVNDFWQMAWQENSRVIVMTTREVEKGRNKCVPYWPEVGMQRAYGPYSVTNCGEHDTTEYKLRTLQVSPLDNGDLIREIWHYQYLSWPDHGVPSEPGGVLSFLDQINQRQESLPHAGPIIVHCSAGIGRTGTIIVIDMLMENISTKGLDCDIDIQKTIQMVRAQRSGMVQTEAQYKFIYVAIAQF
TCPTP, sequence (P17706 5-275 limits assumed): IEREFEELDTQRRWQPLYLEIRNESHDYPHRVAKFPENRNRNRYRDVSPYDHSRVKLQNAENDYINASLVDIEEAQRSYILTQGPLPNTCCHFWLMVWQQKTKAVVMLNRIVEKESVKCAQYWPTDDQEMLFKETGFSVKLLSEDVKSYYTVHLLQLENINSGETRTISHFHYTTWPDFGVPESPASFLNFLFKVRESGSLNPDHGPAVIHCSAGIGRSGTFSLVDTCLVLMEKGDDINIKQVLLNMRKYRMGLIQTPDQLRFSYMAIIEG

As to `CC[C@@H](C)C[C@@H](C)/C=C(C)/C=C/C=C/C=C(\C)C(=O)c1c(O)c(-c2ccc(O)cc2)cn(O)c1=O` [Fumos, Fumosorinone], the concentration for half-maximal inhibition (IC50) in [1] (SHP1 PTP domain) was 34.7 ± 0.37 µM; in experiment [3] (Meg2 PTP domain) it was > 100 µM; in experiment [7] (HePTP PTP domain), > 100 µM; in experiment [8] (TCPTP PTP domain), 29.7 ± 0.42 µM. For the same compound, the IC50 selective is ~6 in experiment [1] (SHP1 relative to Shp2 PTP domain), >16 in [3] (Meg2 relative to Shp2 PTP domain), >16 in experiment [7] (HePTP relative to Shp2 PTP domain) and ~5 in experiment [8] (TCPTP relative to Shp2 PTP domain). The “EGF-induced phosphorylation of AKT” value in experiment [2] is “did not inhibit”. For the same compound, the “EGF-induced phosphorylation of GSK3β” value in experiment [2] is recorded as “did not inhibit”. Besides, in experiment [4], the “EGF-induced ERK1/2 phosphorylation” value is “the decrease was not observed”. Further, the “cell invasion (Transwell)” value in experiment [5] is recorded as “significantly inhibited”. Moreover, the “PMA-induced ERK1/2 phosphorylation” value in [6] is “did not inhibit”. Moreover, in [9], the “Gab1-Shp2 association without EGF” value is recorded as “induces Gab1-Shp2 association”.
